The values below come from patent US10968183B2, “Small molecule FIEL1 inhibitor in inflammatory and fibrotic lung injury” (UNIVERSITY OF PITTSBURGH—OF THE COMMONWEALTH SYSTEM OF …, priority 2015, dated 2021).

Structures are written as SMILES.

This experiment has as its system KIAA0317 and PIAS4 mRNA. The experiment in a line: PIAS4 and KIAA0317 mRNA analysis (RT-qPCR). To be noted: treatment for 18 h; FIG. 15G. It is filed as cell-based. As for the experimental part:
FIG. 15A. Diagram of the BC-1485 synthesis process. FIGS. 15B-15C. Docking studies of the lead compound, BC-1485, interacting with the FIEL1-HECT domain. FIG. 15D. MRC5 cells were treated with the compound at various doses; cells were also co-treated with TGFβ at 2 ng/ml. 18 h later, cells were collected and assayed for α-SMA expression. FIG. 15E. MRC5 cells were seeded in 35 mm glass bottom dishes before co-treatment with TGFβ at 2 ng/ml and BC-1480 or BC1485 at 5μM. FIG. 15F. PIAS4 protein half-life determination after BC-1480 or BC1485 treatment at 5μM for 18 h. FIG. 15G. PIAS4 and KIAA0317 mRNA analysis after BC1485 treatment for 18 h.
Total RNA was isolated and reverse transcription was performed followed by real-time quantitative PCR with SYBR Green qPCR mixture as described in Butler et al. J. Biol. Chem. 2010, […]: 6246-6258. All mutant PIAS4 and KIAA0317 plasmid constructs were generated using PCR-based approaches and appropriate primers and subcloned into a pcDNA3.1D/V5-HIS vector.
A general note: In qPCR the cycle at which signal appears reflects the starting amount.

As for `CC(NC(=O)c1ccc(NS(=O)(=O)c2ccc3[nH]c(=O)[nH]c3c2)cc1)C(=O)N(C)C` (centres unmarked) [BC-1485], the “KIAA0317 mRNA levels” value is “did not significantly alter” and the “PIAS4 mRNA levels” value is listed as “did not significantly alter”.
